Values quoted from earlier work, collected in US8748086B2, “Aqueous solution for the preservation of tissues and organs” (Universidad de Barcelona, priority 2008, dated 2014).

Assays:
[1] = tested on: hearts; conditions: tacrolimus in UW preservation solution; Rajesh et al. 2003
[2] = tested on: non-steatotic and steatotic livers; conditions: prolonged ischemic periods; Ben Mosbah et al. 2006

Row | Compound | effect on preservation of hearts [1] | capacity of the preservation solution to protect livers [2]
1 | C=CC[C@@H]1/C=C(\C)C[C@H](C)C[C@H](OC)[C@H]2O[C@@](O)(C(=O)C(=O)N3CCCC[C@H]3C(=O)O[C@H](/C(C)=C/[C@@H]3CC[C@@H](O)[C@H](OC)C3)[C@H](C)[C@@H](O)CC1=O)[C@H](C)C[C@@H]2OC [tacrolimus, Tacrolimus] | failed to have any effect on preservation | 
2 | COc1ccc(CN2CCNCC2)c(OC)c1OC [trimetazidine] |  | improved the capacity of this standard preservation solution to protect
